How the values were obtained:
Male Laca mice = experiment: Porsolt Forced Swim test (behavioural despair test); type: in vivo
Experimental: Method: Porsolt Forced Swim test (also called behavioural despair test)
Animals are subjected to two trials during which they are force to swim in an acrylic glass cylinder filled with water and from which they cannot escape. The first trial lasts 15 minutes. Then, after 24-hours, a second trial is performed which lasts 5 minutes. The time that the animal spends without moving in the second trial is measured. This immobility time is decreased by antidepressants.
After some time, the mice give up the attempt to escape from the water and subside into immobility. The duration of the immobility is measured. An animal was considered to be immobile whenever it remained floating passively in the water in a slightly hunched but upright position, its nose above the water surface. […] The total immobility period during the 6-min test was recorded with the help of stopwatch.
The immobility period data obtained from tables 1, 2 and 3 is plotted against the dose administered in FIG. 1, FIG. 2 and FIG. 3 respectively, as shown in the drawing accompanying this specification.
Test Procedures: Porsolt Forced Swim test. Rectangular glass jar (25×12×25 cm^3) containing 15 cm of water maintained at 24±1° C.
The immobility period data obtained from Tables 4, 5, 6 and 7 is plotted against the dose administered in FIG. 4, FIG. 5, FIG. 6 and FIG. 7 respectively, as shown in the drawing accompanying this specification.

Dopamine = experiment: Biological amine levels by HPLC-ECD after 45 min: dopamine; type: in vivo, mice; conditions: fluoxetine 10 mg/kg
Experimental: (§1) Test Substances: […] Animals: Male Laca mice. Test Procedures: Animals were sacrificed after 45 min of drug administration similar to the time period of behavioral observations. HPLC-ECD detector: Mobile phase—Phosphate buffer: […] • Column—ODS-3 C-18 column (250×4.6 mm I.D.; 5 μm particle size)

5-hydroxytryptamine = experiment: Biological amine levels by HPLC-ECD after 45 min: 5-hydroxytryptamine; type: in vivo, mice; conditions: fluoxetine 10 mg/kg
Experimental: as §1

Norepinephrine = experiment: Biological amine levels by HPLC-ECD after 45 min: norepinephrine; type: in vivo, mice; conditions: fluoxetine 10 mg/kg
Experimental: as §1

[1] = Table 7, tranylcypromine alone 5 mg/kg ip
[2] = Table 6, desipramine alone 5 mg/kg ip
[3] = Table 4, fluoxetine alone 5 mg/kg ip
[4] = Table 5, venlafaxine alone 2 mg/kg ip

N[C@@H]1C[C@H]1c1ccccc1 (racemic) [Tranylcypromine]
% Decrease in immobility w.r.t vehicle group (Male Laca mice; [1]): 15.15%
Immobility period (Male Laca mice; [1]): 234 ± 20.41 s

CNCCCN1c2ccccc2CCc2ccccc21 [Desipramine]
% Decrease in immobility w.r.t vehicle group (Male Laca mice; [2]): 17.46%
Immobility period (Male Laca mice; [2]): 211.5 ± 21.97 s

CNCCC(Oc1ccc(C(F)(F)F)cc1)c1ccccc1 (centres unmarked) [Fluoxetine]
Dopamine % increase w.r.t Control (Dopamine): 12.15%
Dopamine (ng/mg tissue) (Dopamine; n = 5): 6.09 ± 0.54 ng/mg tissue
5-hydroxytryptamine % increase w.r.t Control (5-hydroxytryptamine): 36.52%
5-hydroxytryptamine (ng/mg tissue) (5-hydroxytryptamine; n = 5): 5.42 ± 0.13 ng/mg tissue
Norepinephrine % increase w.r.t Control (Norepinephrine): 40.87%
Norepinephrine (ng/mg tissue) (Norepinephrine; n = 5): 4.17 ± 0.23a ng/mg tissue
% Decrease in immobility w.r.t saline treated group (Male Laca mice; Table 1, fluoxetine 10 mg/kg): 74.30%
Immobility period (Male Laca mice; Table 1, fluoxetine 10 mg/kg): 57 ± 17.45 s
% Decrease in immobility w.r.t saline treated group (Male Laca mice; Table 2, fluoxetine 10 mg/kg): 70.51%
Immobility period (Male Laca mice; Table 2, fluoxetine 10 mg/kg): 57 ± 17.45 s
% Decrease in immobility w.r.t saline treated group (Male Laca mice; Table 3, fluoxetine 10 mg/kg): 70.51%
Immobility period (Male Laca mice; Table 3, fluoxetine 10 mg/kg): 57 ± 17.45 s
% Decrease in immobility w.r.t saline group (Male Laca mice; [3]): 12.30%
Immobility period (Male Laca mice; [3]): 172.75 ± 10.4 s

COc1ccc(C(CN(C)C)C2(O)CCCCC2)cc1 (centres unmarked) [Venlafaxine]
% Decrease in immobility w.r.t vehicle group (Male Laca mice; [4]): 8.69%
Immobility period (Male Laca mice; [4]): 193.8 ± 13.26 s

Reference: patent publication US9259401B2 (priority 2011, dated 2016)
